Laboratory results from US20060286626A1, “Selective chromophores” (priority 2002, published 2006).
Entries after “also recorded” stand apart in the source; their conditions may differ.

Assays:
Type in all cases: cell-based
[1] = tested on: sections of testis from rat; assay: Fluorescent staining of testis sections from rat; settings: for concentration dependence of staining in testis: 0.05-50 μg/ml; for cells stained / affinity in testis: 15 minutes incubation, concentration not given
Experimental: Testis tissues were obtained from a male Sprague-Dawley rat, which has been used as a control in another study. The tissues were fixed in 4% formaldehyde, imbedded in paraffin and sectioned into 4 μm thick slices before dewaxed and hydrated. Stock solutions containing 5 mg dye/ml DMSO and ethanol were made. These were diluted to 0.05, 0.5, 5, 10, and 50 μg/ml with water. At the time of the experiment, 100 μl from each solution was added to the sections, respectively. The sections were incubated for 15 minutes before the excess dye was removed by washing with water.
To se if and if so, the position of benzosuccinimidyl as a substituent alters the affinity of the dyes testis was stained with the two PASU dyes.
(§1) Fluorescence microscopic experiments were performed with a Zeizz (West Germany) microscope equipped with Plan Neofuar 40/0.9 I mm Ph3 and Plan Neofuar 25/0.8 W-Oel Ph2 objectives. A Winder M35 camera was used to obtain the microscopic images.

[2] = tested on: small intestine sections from rats; assay: Fluorescent staining of small intestine sections from rat
Text: Derivatives of Nile Red (FIG. 1) were synthesized and their staining of testis and small intestine sections from rats were studied. Nile Red is a member of benzophenoxazine compounds that provide a family of fluorescent dyes, which can be used, for labelling biological molecules in various applications. The phenoxazine dyes tend to have a large Stokes' shift of 80-100 nm. Nile Red is a highly fluorescent dye, which absorbs energy above 550 nm. Consequently it has mainly been used for lipid staining but also as a solvatrochromic probe to measure the solvent strength of several liquids.
as §1

[3] = tested on: human cell line of fibro sarcom, HT80; assay: Staining of human fibro sarcoma cells; settings: live HT80 cells, 5 μg/ml, without Triton-x
Text: The positively charged part of the molecule might bind to the anionic phosphate group of phospholipids present in the plasma membrane. Since the PASU dyes are uncharged and relatively small molecules they have the ability to pass through the outer layer of the cells. […] To answer the question of what the dyes have affinity for further investigations have to be performed. Furthermore the dyes can be used for detection of receptors of cells. […] By adding a substance that induce conformational changes of the receptor which result in that the dye fit to the receptor, or use a dye with a substituent that fit in the inactivated receptor, the targets, receptors, can be detected as small fluorescent particles, so called pits. Thus, the dyes can be used to detect receptors and follow conformational changes of the receptor, activation-inactivation of receptor.
The stock solutions of the dyes were diluted with PBS or PBS+Triton-x to 5 μg/ml when added to both fixed and unfixed mature fibro sarcoma cells, cell line HT 80. Due to lack of time only the live cells untreated with Triton-x are discussed in the result.

Row | Compound | concentration dependence of staining in testis [1] | cells stained / affinity in testis [1] | part of the cell stained [3] | further results
1 | CN(C)c1ccc2nc3c4cc(OCCCN)ccc4c(=O)cc-3oc2c1 [PA-2, 2-(3-Amino-propoxy)-9-dimethylamino-benzo[a]phenoxazine-5-one] | the concentration of the dye added to the tissue determined which cells that were stained | stains stem cells selectively; also recorded: stains stem cells and spermatocytes; also recorded: high affinity for stem cells and spermatocytes; also recorded: has affinity for stem cells at low concentrations |  | cells stained in testis ([1]; dye 0.05 μg/ml): only stem cells were stained; cells stained in testis ([1]; dye 0.5 μg/ml): germ cells and spermatides fluoresced as well; cells stained in testis ([1]; dye 10 μg/ml): spermatocytes were stained as well; structures stained in small intestine ([2]; slices of small intestine from rat): all nucleuses
2 | CN(C)c1ccc2nc3c4cc(OCCCN5C(=O)c6ccccc6C5=O)ccc4c(=O)cc-3oc2c1 [PASU-1, 1-[3-(9-Dimethylamino-5-oxo-5H-benzo[a]phenoxazine-2-yloxy)-propyl]-isoindole-1,3-dione] |  | does not have any affinity |  | 
3 | CN(C)c1ccc2nc3c4cc(OCCCN5C(=O)c6ccccc6C5=O)ccc4c(=O)cc-3oc2c1 [PASU-2, 2-[3-(9-Dimethylamino-5-oxo-5H-benzo[a]phenoxazine-2-yloxy)-propyl]-isoindole-1,3-dione] |  | stains spermatides and spermatozoa; also recorded: stain different cells and parts of cells; also recorded: has preferences to sperms and spermatides; also recorded: binds to spermatides and spermatozoa | stains the cytoplasm but not the nucleus | concentration dependence of staining in small intestine ([2]; small intestine from rat): differs a lot with the concentration of dye
4 | CN(C)c1ccc2nc3c4cc(OCCCN5C(=O)c6ccccc6C5=O)ccc4c(=O)cc-3oc2c1 [PASU-3, 3-[3-(9-Dimethylamino-5-oxo-5H-benzo[a]phenoxazine-2-yloxy)-propyl]-isoindole-1,3-dione] |  | stain different cells and parts of cells; also recorded: stains stem cells but not spermatides and spermatozoa |  | 
5 | CN(C)c1ccc2nc3c4cc(OCCC[N+](C)(C)C)ccc4c(=O)cc-3oc2c1 [PATM-2, 9-Dimethylamino-2-(trimethylammonium-propoxy)-benzo[a]phenoxazin-5-one] | no concentration dependence | stains germ cells | stains the plasma membranes of the cells | permeability of the plasma membrane [3]: does not reach into the cytoplasm of the cells
